Test results: patent US6630496B1, “Inhibitors of phospholipase enzymes” (Genetics Institute LLC, priority 1996, dated 2003)

How the values were obtained:
cPLA2 [1] = target: T1, cPLA2 (Homo sapiens, UniProt P47712); test: Soluble substrate assay (LysoPC); type: biochemical
T1 sequence (P47712 1-749): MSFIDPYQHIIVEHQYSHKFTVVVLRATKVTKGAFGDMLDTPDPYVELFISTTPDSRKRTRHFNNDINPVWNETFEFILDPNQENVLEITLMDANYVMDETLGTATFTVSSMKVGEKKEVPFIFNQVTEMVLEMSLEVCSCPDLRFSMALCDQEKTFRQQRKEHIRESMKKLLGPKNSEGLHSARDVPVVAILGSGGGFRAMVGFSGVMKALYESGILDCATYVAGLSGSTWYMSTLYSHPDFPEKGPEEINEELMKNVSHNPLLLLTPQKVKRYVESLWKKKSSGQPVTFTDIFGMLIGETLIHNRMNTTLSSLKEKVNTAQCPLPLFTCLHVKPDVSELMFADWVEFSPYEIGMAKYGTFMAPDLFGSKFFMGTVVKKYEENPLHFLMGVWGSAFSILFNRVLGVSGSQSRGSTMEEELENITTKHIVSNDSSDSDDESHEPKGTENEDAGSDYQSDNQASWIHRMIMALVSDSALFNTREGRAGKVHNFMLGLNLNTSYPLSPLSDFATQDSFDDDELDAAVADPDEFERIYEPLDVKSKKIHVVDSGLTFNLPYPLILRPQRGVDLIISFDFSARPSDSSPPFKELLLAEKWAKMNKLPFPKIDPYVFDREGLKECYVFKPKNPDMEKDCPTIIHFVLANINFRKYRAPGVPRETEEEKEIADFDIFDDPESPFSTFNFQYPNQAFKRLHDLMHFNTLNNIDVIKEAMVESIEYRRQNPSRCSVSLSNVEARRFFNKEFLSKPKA
Protocol: (b) Soluble Substrate Assay (LysoPC)
The lipid was resuspended by vortexing 80 mM Hepes pH 7.5, 1 mM EDTA (1.2×final concentration). A typical assay consisted of lipid suspension (85 μl) to which was added consecutively the inhibitor (5 μl in DMSO) and cPLA2, 200 ng in 80 mM Hepes pH 7.5, 2 mM DTT and […]. This assay was conducted by either the manual assay or automated assay protocol described below.

cPLA2 [2] = target: T1, cPLA2; test: Coumarine assay (7-hydroxycoumarinyl 6-heptenoate hydrolysis); type: biochemical
Protocol: 7-hydroxycoumarinyl 6-heptenoate was used as a monomeric substrate for cPLA2 as reported previously (Huang, Z. et al., 1994, Analytical Biochemistry 222, 110-115). Inhibitors were mixed with 200 μL assay buffer (80 mM Hepes, pH 7.5, 1 mM EDTA) containing 60 μM 7-hydroxycoumarinyl 6-heptenoate. The reaction was initiated by adding 4 μg cPLA2 in 50 μL assay buffer. Hydrolysis of the 7-hydroxycoumarinyl 6-heptenoate ester was monitored in a fluorometer by exciting at 360 nm and monitoring emission at 460 nm. Enzyme activity is proportional to the increasein emission at 460 nm per minute. In the presence of a cPLA2 inhibitor, the rate of increase is less.

[3] = NA = inhibitory activity not detected, read-out: IC50 (μM) Lyso PC
[4] = 60 μM 7-hydroxycoumarinyl 6-heptenoate, read-out: IC50 (μM) Coumarine

3-(2-(5-Benzyloxy-1-tert-butoxycarbonyl)indolinyl)methylsulfonylacetamidobenzoic Acid [Example 64]
IC50 (cPLA2 [1]; [3]): 17.6 µM | IC50 (cPLA2 [2]; [4]): > 64 µM

3-(2-(-5-Benzyloxy-1-(2,4-bis(1,1-dimethy)propyl)phenoxyacetyl)indolinyl)methylthioacetamido-4-methylbenzoic Acid [Example 18]
IC50 (cPLA2 [1]; [3]): 0.28 µM | IC50 (cPLA2 [2]; [4]): 10 µM

3-(N-(2-(-5-Benzyloxy-1-(2,4-bis(1,1-dimethy)propyl)phenoxyacetyl)indolinyl)methylthioethyl)aminobenzoic Acid [Example 69]
IC50 (cPLA2 [1]; [3]): 19.4 µM | IC50 (cPLA2 [2]; [4]): 6 µM

5-(2-(5-(3,5-Dibromo)benzyloxy-1-(3,5-bis(trifluoromethyl)phenoxyacetyl)indolinyl)methylthioacetamido)benzene-1,3-dicarboxylic Acid [Example 45]
IC50 (cPLA2 [1]; [3]): 0.37 µM | IC50 (cPLA2 [2]; [4]): 5 µM

5-(2-(-5-Benzyloxy-1-(3,5-bis(trifluoromethyl)phenoxyacetyl)indolinyl)methylthioacetamido)-3-hydroxymethylbenzoic Acid [Example 41]
IC50 (cPLA2 [1]; [3]): 2.2 µM | IC50 (cPLA2 [2]; [4]): 22 µM

5-(2-(-5-Benzyloxy-1-(3,5-bis(trifluoromethyl)phenoxyacetyl)indolinyl)methylthioacetamido)benzene-1,3-dicarboxylic Acid [Example 38]
IC50 (cPLA2 [1]; [3]): 6.9 µM | IC50 (cPLA2 [2]; [4]): > 50 µM

5-(2-(-5-Hydroxy-1-(3,5-bis(trifluoromethyl)phenoxyacetyl)indolinyl)methylthioacetamido)benzene-1,3-dicarboxylic Acid [Example 44]
IC50 (cPLA2 [1]; [3]): 27 µM | IC50 (cPLA2 [2]; [4]): > 30 µM

O=C(O)c1ccccc1OCc1cc2cc(OCc3ccccc3)ccc2n1C(=O)OCc1ccccc1 [Example 1, 2-(2-(1-Phenylmethoxycarbonyl-5-phenylmethoxy)indolyl)methoxybenzoic Acid]
IC50 (cPLA2 [1]): 47 µM

O=C(O)c1ccc(OCc2cc3cc(OCc4ccccc4)ccc3n2C(=O)OCc2ccccc2)cc1 [Example 2, 4-(2-(1-Phenylmethoxycarbonyl-5-phenylmethoxy)indolyl)methoxybenzoic Acid]
IC50 (cPLA2 [1]): 6 µM

O=C(O)c1cccc(OCc2cc3cc(OCc4ccccc4)ccc3n2C(=O)OCc2ccccc2)c1 [Example 3, 3-(2-(1-Phenylmethoxycarbonyl-5-phenylmethoxy)indolyl)methoxybenzoic Acid]
IC50 (cPLA2 [1]): 6.5 µM | IC50 (cPLA2 [2]): 14 µM

O=C(O)c1cccc(NC(=O)c2cc3cc(OCc4ccccc4)ccc3n2Cc2ccccc2)c1 [Example 5, 3-(2-(1-Benzyl-5-benzyloxy)indolecarboxamido)benzoic Acid]
IC50 (cPLA2 [1]): 4.3 µM | IC50 (cPLA2 [2]): 52 µM

CCC(C)(C)c1ccc(CCCCn2c(C(=O)Nc3cc(C(=O)O)ccc3OC)cc3cc(OCc4ccccc4)ccc32)c(C(C)(C)CC)c1 [Example 6]
IC50 (cPLA2 [1]): 2 µM | IC50 (cPLA2 [2]): 6 µM

O=C(O)c1cc(NC(=O)c2cc3cc(OCc4ccccc4)ccc3n2Cc2ccc3ccccc3c2)cc(C(=O)O)c1 [Example 7]
IC50 (cPLA2 [1]): 2.1 µM | IC50 (cPLA2 [2]): 15 µM

CCC(C)(C)c1ccc(OCC(=O)c2c(CSCC(=O)Nc3cc(C(=O)O)ccc3OC)n(C)c3ccc(OC)cc23)c(C(C)(C)CC)c1 [Example 12, 3-(2-(3-(2,4-bis(1,1-Dimethypropyl)phenoxyacetyl)-5-methoxy-1-methyl)indolyl)methylthioacetamido-4-methoxybenzoic Acid]
IC50 (cPLA2 [1]): 4 µM | IC50 (cPLA2 [2]): 10 µM

CCn1c(CSCC(=O)Nc2cc(C(=O)O)ccc2OC)c(C(=O)COc2ccc(C(C)(C)CC)cc2C(C)(C)CC)c2cc(OCc3ccccc3)ccc21 [Example 13]
IC50 (cPLA2 [1]): 0.5 µM | IC50 (cPLA2 [2]): 12 µM

O=C(O)CSCC1Cc2cc(OCc3ccccc3)ccc2N1C(=O)COc1cc(C(F)(F)F)cc(C(F)(F)F)c1 (stereo not drawn) [Example 37, 2-(5-Benzyloxy-1-(3,5-bis(trifluoromethyl)phenoxyacetyl)indolinyl)methylthioacetic Acid]
IC50 (cPLA2 [1]; [3]): 7.6 µM | IC50 (cPLA2 [2]; [4]): > 30 µM

CN(C)C(=O)c1cc(NC(=O)CSCC2Cc3cc(OCc4ccccc4)ccc3N2C(=O)COc2cc(C(F)(F)F)cc(C(F)(F)F)c2)cc(C(=O)O)c1 (stereo not drawn) [Example 39]
IC50 (cPLA2 [1]; [3]): 4.3 µM | IC50 (cPLA2 [2]; [4]): 18 µM

CC(=O)c1cc(NC(=O)CSCC2Cc3cc(OCc4ccccc4)ccc3N2C(=O)COc2cc(C(F)(F)F)cc(C(F)(F)F)c2)cc(C(=O)O)c1 (stereo not drawn) [Example 40]
IC50 (cPLA2 [1]; [3]): 6.2 µM | IC50 (cPLA2 [2]; [4]): 11 µM

CC(O)c1cc(NC(=O)CSCC2Cc3cc(OCc4ccccc4)ccc3N2C(=O)COc2cc(C(F)(F)F)cc(C(F)(F)F)c2)cc(C(=O)O)c1 (stereo not drawn) [Example 42]
IC50 (cPLA2 [1]; [3]): 7.8 µM | IC50 (cPLA2 [2]; [4]): 14 µM

CNC(=O)c1cc(NC(=O)CSCC2Cc3cc(OCc4ccccc4)ccc3N2C(=O)COc2cc(C(F)(F)F)cc(C(F)(F)F)c2)cc(C(=O)O)c1 (stereo not drawn) [Example 43]
IC50 (cPLA2 [1]; [3]): 7.1 µM | IC50 (cPLA2 [2]; [4]): 21 µM

CC(C)(c1ccccc1)c1ccc(OCC(=O)N2c3ccc(OCc4ccccc4)cc3CC2CSCC(=O)Nc2cccc(C(=O)O)c2)c(C(C)(C)c2ccccc2)c1 (stereo not drawn) [Example 56]
IC50 (cPLA2 [1]; [3]): 0.47 µM | IC50 (cPLA2 [2]; [4]): 5 µM

O=C(CSCC1Cc2cc(OCc3ccccc3)ccc2N1C(=O)COc1ccc(C2C=CCC2)cc1C1C=CCC1)Nc1cccc(C(=O)O)c1 (stereo not drawn) [Example 58]
IC50 (cPLA2 [1]; [3]): 0.56 µM | IC50 (cPLA2 [2]; [4]): 4 µM

COc1ccc(C(=O)O)cc1NC(=O)CSCC1Cc2cc(OCc3ccccc3)ccc2N1C(=O)COc1ccc2ccccc2c1 (stereo not drawn) [Example 59, 3-(2-(5-Benzyloxy-1-(2-naphthoxyaceiyl)indolinyl)methylthioacetamido)4-methoxybenzoic Acid]
IC50 (cPLA2 [1]; [3]): 8.7 µM | IC50 (cPLA2 [2]; [4]): > 30 µM

COc1ccc(C(=O)O)cc1NC(=O)CSCC1Cc2cc(OCc3ccccc3)ccc2N1C(=O)COc1ccc(Cc2ccccc2)cc1 (stereo not drawn) [Example 60]
IC50 (cPLA2 [1]; [3]): 4.6 µM | IC50 (cPLA2 [2]; [4]): > 30 µM

CCC(C)(C)c1ccc(OCC(=O)N2c3ccc(OCc4ccccc4)cc3CC2CSCC(=O)O)c(C(C)(C)CC)c1 (stereo not drawn) [Example 66]
IC50 (cPLA2 [1]; [3]): 2.3 µM | IC50 (cPLA2 [2]; [4]): 6 µM

CCC(C)(C)c1ccc(OCC(=O)N2c3ccc(OCc4ccccc4)cc3CC2CSc2ccccc2C(=O)NC)c(C(C)(C)CC)c1 (stereo not drawn) [Example 68]
IC50 (cPLA2 [1]; [3]): > 50 µM | IC50 (cPLA2 [2]; [4]): > 50 µM

C=CCN(C(=O)CSCC1Cc2cc(OCc3ccccc3)ccc2N1C(=O)COc1ccc(C(C)(C)CC)cc1C(C)(C)CC)c1cc(C(=O)O)ccc1OC (stereo not drawn) [Example 71]
IC50 (cPLA2 [1]; [3]): 5.9 µM | IC50 (cPLA2 [2]; [4]): 12 µM

O=C(CSCC1Cc2cc(OCc3ccccc3)ccc2N1CCc1ccncc1)Nc1cccc(C(=O)O)c1 (stereo not drawn) [Example 72]
IC50 (cPLA2 [2]; [4]): > 64 µM

O=C(CSCC1Cc2cc(OCc3ccccc3)ccc2N1Cc1ccc2ccccc2c1)Nc1cccc(C(=O)O)c1 (stereo not drawn) [Example 73, 3-(2-(5-Benzyloxy-1-(2-naphthyl)methy)indolinyl)methylthioacetamidobenzoic Acid]
IC50 (cPLA2 [1]; [3]): 1.9 µM | IC50 (cPLA2 [2]; [4]): 6 µM

O=C(CSCC1Cc2cc(OCc3ccccc3)ccc2N1Cc1ccc(C(F)(F)F)cc1C(F)(F)F)Nc1cccc(C(=O)O)c1 (stereo not drawn) [Example 74]
IC50 (cPLA2 [1]; [3]): 1.1 µM | IC50 (cPLA2 [2]; [4]): 5 µM

COc1ccc(C(=O)O)cc1NC(=O)CSCC1Cc2cc(OCc3ccccc3)ccc2N1Cc1ccc(C(F)(F)F)cc1C(F)(F)F (stereo not drawn) [Example 75]
IC50 (cPLA2 [1]; [3]): 7 µM | IC50 (cPLA2 [2]; [4]): 6.2 µM

O=C(O)c1ccccc1SCC1Cc2cc(OCc3ccccc3)ccc2N1Cc1ccc(Cc2ccccc2)cc1 (stereo not drawn) [Example 78]
IC50 (cPLA2 [2]; [4]): 3 µM

O=C(O)c1ccc(CN2c3ccc(OCc4ccccc4)cc3CC2COCc2ccc(C(F)(F)F)cc2C(F)(F)F)cc1 (stereo not drawn) [Example 80, 4-(1-(5-Benzyloxy-2-(bis-2,4-trifluoromethyl)benzyloxymethyl)indolinyl)methylbenzoic Acid]
IC50 (cPLA2 [2]; [4]): 16 µM

O=C(O)c1ccc(CN2c3ccc(OCc4ccccc4)cc3CC2COCc2ccc3ccccc3c2)cc1 (stereo not drawn) [Example 81]
IC50 (cPLA2 [1]; [3]): 3.2 µM | IC50 (cPLA2 [2]; [4]): 15 µM

O=C(O)c1cc(NC(=O)C2Cc3ccccc3N2Cc2ccc(C(F)(F)F)cc2C(F)(F)F)cc(C(=O)O)c1 (stereo not drawn) [Example 83]
IC50 (cPLA2 [1]; [3]): > 50 µM | IC50 (cPLA2 [2]; [4]): > 50 µM

COc1ccc(COc2ccc3c(c2)CC(CNC(=O)Nc2cc(C(=O)O)cc(C(=O)O)c2)N3Cc2ccc(C(F)(F)F)cc2C(F)(F)F)cc1 (stereo not drawn) [Example 86]
IC50 (cPLA2 [2]; [4]): 17 µM
